From patent US10221138B2, “Biaryl derivatives as GPR120 agonists” (LG CHEM, LTD., priority 2013, dated 2019)

The compounds below were run against T1, hGPR120 (Homo sapiens, UniProt Q5NUL3) (assay: Measurement of activity of GPR120 agonist (cell-based calcium fluorescence assay)). Conditions: CHO-K1 cells expressing Ga16 and hGPR120, Calcium 5 dye fluorescence; activity class; read-out: EC50.
T1 construct: expressed in transfected cells; host or cells: CHO-K1
T1 sequence (Q5NUL3 1-361): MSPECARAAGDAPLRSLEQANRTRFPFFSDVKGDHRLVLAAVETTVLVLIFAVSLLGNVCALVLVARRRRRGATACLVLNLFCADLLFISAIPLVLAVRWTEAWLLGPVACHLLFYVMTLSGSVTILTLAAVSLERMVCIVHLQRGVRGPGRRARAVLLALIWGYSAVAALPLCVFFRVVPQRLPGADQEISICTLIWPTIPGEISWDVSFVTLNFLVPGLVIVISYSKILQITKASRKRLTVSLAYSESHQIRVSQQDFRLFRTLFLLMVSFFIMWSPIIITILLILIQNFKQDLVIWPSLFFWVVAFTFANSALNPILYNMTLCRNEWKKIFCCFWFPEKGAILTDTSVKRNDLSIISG
Protocol: CHO-K1 cells expressing Ga16 and hGPR120 were dispensed into each well of a 96-well plate (3×10^4 cells/100 μl/well) and then incubated in 5% CO2, 37° C. incubator for 18 hours. Each well was treated with 100 μl of Calcium 5 dye (Molecular Devices) solution including 2% DMSO and then incubated in 5% CO2, 37° C. incubator for 1 hour. Serially diluted GPR120 agonists were prepared to a final concentration of 0.5% DMSO in a 96-well plate.
Fluorescence increased by the serially diluted GPR120 agonists is calculated as a relative percent (%) value based on the fluorescence represented by the treatment of 1% DMSO only. […] The calculation of measurement was carried out by using statistical software (Prizm).
Activity is denoted based on the following criteria: […]

| SMILES | EC50 |
| --- | --- |
| Cc1cc(Oc2ncccc2-c2cc(F)c(OCCCC(=O)O)c(F)c2)no1 [Example 217, 4-[2,6-difluoro-4-[2-(5-methylisoxazol-3-yl)oxy-3-pyridyl]phenoxy]butanoic acid] | 2000 to 20000 nM |
| O=C(O)CCCOc1c(F)cc(-c2cccc(NCC3CC3)n2)cc1F [Example 75, 4-[4-[6-(cyclopropylmethylamino)-2-pyridyl]-2,6-difluoro-phenoxy]butanoic acid] | 200 to 2000 nM |
| COc1ccc(-c2ccc(SCCCC(=O)O)c(F)c2)c(OC(C)C)c1 [Example 185, 4-(3-fluoro-2′-isopropoxy-4′-methoxy-biphenyl-4-ylsulfanyl)-butyric acid] | < 200 nM |
| CC1(COc2ncccc2-c2cc(F)c(OCCCC(=O)O)c(F)c2)COC1 [Example 221, 4-[2,6-difluoro-4-[2-[(3-methyloxetan-3-yl)methoxy]-3-pyridyl]phenoxy]butanoic acid] | > 20000 nM |
| O=C(O)CCCOc1c(F)cc(-c2ccccc2Oc2ccccc2)cc1F [Example 39, 4-(3,5-difluoro-2′-phenoxy-biphenyl-4-yloxy)-butyric acid] | < 200 nM |
| O=C(O)CCCOc1c(F)cc(-c2ccccc2CC2CCCC2)cc1F [Example 99, 4-[4-[2-(cyclopentylmethyl)phenyl]-2,6-difluoro-phenoxy]butanoic acid] | < 200 nM |
| CCCSc1ncccc1-c1cc(F)c(OCCCCC(=O)O)c(F)c1 [Example 236, 5-[2,6-difluoro-4-(2-propylsulfanyl-3-pyridyl)phenoxy]pentanoic acid] | < 200 nM |
| CCCNc1ccccc1-c1cc(F)c(SCCCC(=O)O)c(F)c1 [Example 166, 4-(3,5-difluoro-2′-propylamino-biphenyl-4-ylsulfanyl)-butyric acid] | < 200 nM |
| O=C(O)CCCCOc1c(F)cc(-c2cccnc2OC2CC2)cc1F [Example 197, 5-[4-(2-cyclopropoxy-pyridin-3-yl)-2,6-difluoro-phenoxy]-pentanoic acid] | 200 to 2000 nM |
| O=C(O)CCCOc1c(F)cc(-c2cccnc2OCc2ccco2)cc1F [Example 220, 4-[2,6-difluoro-4-[2-(2-furylmethoxy)-3-pyridyl]phenoxy]butanoic acid] | 200 to 2000 nM |
| O=C(O)CCCSc1ccc(-c2cccnc2OC2CCCC2)cc1 [Example 123, 4-[4-(2-cyclopentyloxy-pyridin-3-yl)-phenylsulfanyl]-butyric acid] | < 200 nM |
| O=C(O)CCCOc1c(F)cc(-c2cccnc2OCC2CCOC2)cc1F (stereo not shown) [Example 222, 4-[2,6-difluoro-4-[2-(tetrahydrofuran-3-ylmethoxy)-3-pyridyl]phenoxy]butanoic acid] | 2000 to 20000 nM |
| O=C(O)CCCSc1ccc(-c2cccnc2SC2CCC2)cc1 [Example 153, 4-[4-(2-cyclobutylsulfanyl-pyridin-3-yl)-phenylsulfanyl]-butyric acid] | < 200 nM |
| CC(C)Oc1ncccc1-c1ccc(SC(C)CCC(=O)O)cc1 (stereo not shown) [Example 200, 4-[4-(2-isopropoxy-pyridin-3-yl)-phenylsulfanyl]-pentanoic acid] | 200 to 2000 nM |
| O=C(O)CCCSc1ccc(-c2cccc(OC3CCC3)n2)cc1 [Example 128, 4-[4-(6-cyclobutoxy-pyridin-2-yl)-phenylsulfanyl]-butyric acid] | < 200 nM |
| O=C(O)CCCSc1c(F)cc(-c2cccnc2NC2CCCC2)cc1F [Example 249, 4-[4-(2-cyclopentylamino-pyridin-3-yl)-2,6-difluoro-phenylsulfanyl]-butyric acid] | < 200 nM |
| CCCCSc1ncccc1-c1cc(F)c(OCCCC(=O)O)c(F)c1 [Example 207, 4-[4-(2-butylsulfanyl-pyridin-3-yl)-2,6-difluoro-phenoxy]-butanoic acid] | < 200 nM |
| O=C(O)CCCOc1c(F)cc(-c2cccc(NCC3CC3)c2)cc1F [Example 90, 4-[4-[3-(cyclopropylmethylamino)phenyl]-2,6-difluoro-phenoxy]butanoic acid] | < 200 nM |
| Cc1cc(F)c(OC(C)C)c(-c2ccc(SCCCC(=O)O)c(F)c2)c1 [Example 190, 4-(3,3′-difluoro-2′-isopropoxy-5′-methyl-biphenyl-4-ylsulfanyl)-butyric acid] | < 200 nM |
